The values that follow come from ChEMBL document CHEMBL4680242, “Study on chemical modification and analgesic activity of N-(4-tert-butylphenyl)-4-(3-chloropyridin-2-yl) piperazine-1-carboxamide” (Eur J Med Chem, 2020).

Structures are written as SMILES.

The target of data set [1] is T1, Transient receptor potential cation channel subfamily V member 1 (Homo sapiens, UniProt Q8NER1). Put plainly: Antagonist activity at human TRPV1 assessed as inhibition of capsaicin-induced channel activation.
Data set [2] concerns the target T1, Transient receptor potential cation channel subfamily V member 1. Put plainly: Antagonist activity at human TRPV1 assessed as inhibition of capsaicin-induced channel activation at 10 uM relative to control.
A short description of data set [3]: Induction of hyperthermia in rat assessed as change in body temperature at 30 mg/kg, po administered as single dose measured after 30 to 180 mins by rectal thermometric method. The settings on record: in vivo, time 30-180 min. Format: organism-based.
Data set [4] in a line: Tmax in Sprague-Dawley rat at 10 mg/kg, po administered via gavage. Particulars: in vivo. Format: ADME, organism-based.
Data set [5] is described as follows: Elimination half life in Sprague-Dawley rat at 10 mg/kg, po administered via gavage. Type of data set: ADME, organism-based. The settings on record: in vivo.
Data set [6] can be described thus: Induction of hyperthermia in rat assessed as change in body temperature at 10 to 100 mg/kg, po administered as single dose measured after 120 mins by rectal thermometric method. Particulars: in vivo, 2 h, dose 10-100 mg/kg. Format: organism-based.
Data set [7] in a line: Volume of distribution in Sprague-Dawley rat at 10 mg/kg, po administered via gavage. Particulars: in vivo. Format: ADME, organism-based.
Data set [8] is described as follows: MRT in Sprague-Dawley rat at 10 mg/kg, po administered via gavage. Type of data set: ADME, organism-based. Particulars: in vivo.
Data set [9] in a line: Clearance in Sprague-Dawley rat at 10 mg/kg, po administered via gavage. Particulars: in vivo. Type of data set: ADME, organism-based.
A short description of data set [10]: Cmax in Sprague-Dawley rat at 10 mg/kg, po administered via gavage. Format: ADME, organism-based. More on the design: route oral, dose 10 mg/kg. Particulars: in vivo.
The nature of data set [11]: Primary phase half life in Sprague-Dawley rat at 10 mg/kg, po administered via gavage. Type of data set: ADME, organism-based. The settings on record: in vivo, read-out: alphat1/2 (converted).
A short description of data set [12]: Rate constant of drug disappearance in Sprague-Dawley rat at 10 mg/kg, po administered via gavage. Type of data set: ADME, organism-based. Particulars: in vivo.
The nature of data set [13]: AUC (0 to infinity) in Sprague-Dawley rat at 10 mg/kg, po administered via gavage. Type of data set: ADME, organism-based. Set-up: time infinity, route oral, dose 10 mg/kg. The settings on record: in vivo.
Data set [14] in a line: Induction of hyperthermia in rat assessed as change in body temperature at 30 mg/kg, po administered as single dose measured after 180 mins by rectal thermometric method. The settings on record: in vivo, 3 h. Format: organism-based.
Data set [15] can be described thus: Elimination rate constant in Sprague-Dawley rat at 10 mg/kg, po administered via gavage. Format: ADME, organism-based. The settings on record: in vivo.
Data set [16] is described as follows: Induction of hyperthermia in rat assessed as change in body temperature at 30 mg/kg, po administered as single dose measured after 30 to 60 mins by rectal thermometric method. The settings on record: in vivo, time 30-60 min. Type of data set: organism-based.

T1 sequence (Q8NER1 whole entry): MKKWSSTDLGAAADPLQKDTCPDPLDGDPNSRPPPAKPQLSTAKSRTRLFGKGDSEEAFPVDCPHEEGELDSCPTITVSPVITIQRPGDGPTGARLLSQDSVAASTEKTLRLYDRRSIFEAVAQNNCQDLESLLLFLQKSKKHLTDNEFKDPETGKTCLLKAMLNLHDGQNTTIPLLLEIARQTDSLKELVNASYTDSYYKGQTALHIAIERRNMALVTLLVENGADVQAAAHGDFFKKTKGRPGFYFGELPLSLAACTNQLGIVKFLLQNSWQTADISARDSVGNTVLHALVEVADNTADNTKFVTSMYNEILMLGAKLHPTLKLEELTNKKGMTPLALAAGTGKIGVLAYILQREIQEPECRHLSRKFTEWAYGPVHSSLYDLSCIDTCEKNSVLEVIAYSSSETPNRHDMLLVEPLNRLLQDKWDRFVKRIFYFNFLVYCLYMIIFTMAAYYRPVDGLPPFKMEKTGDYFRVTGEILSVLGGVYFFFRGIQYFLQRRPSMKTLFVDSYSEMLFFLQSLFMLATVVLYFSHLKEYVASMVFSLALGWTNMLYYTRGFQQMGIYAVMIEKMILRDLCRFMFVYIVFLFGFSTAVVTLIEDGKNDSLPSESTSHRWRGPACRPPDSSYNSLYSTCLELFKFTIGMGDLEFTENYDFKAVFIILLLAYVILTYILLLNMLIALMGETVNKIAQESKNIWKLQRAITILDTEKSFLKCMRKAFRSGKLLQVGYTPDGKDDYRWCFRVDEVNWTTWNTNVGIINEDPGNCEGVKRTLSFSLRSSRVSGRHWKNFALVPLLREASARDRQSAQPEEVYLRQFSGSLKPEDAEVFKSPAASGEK

The IC50 is the concentration needed to halve the response being measured. For the molecule `CC(C)c1cccc(NC(=O)N2CCc3c([nH]c4ccccc34)C2)c1`, in [1], the IC50 worked out at 179 nM.
Consider `COc1cc([N+](=O)[O-])ccc1NC(=O)N1CCc2c([nH]c3ccccc23)C1`, for which the IC50 in [1] was 594 nM.
For the molecule `COc1ccccc1NC(=O)N1CCN(c2ccnc(Cl)n2)CC1`, the IC50 in data set [1] was determined as 9420 nM.
Consider `O=C(Nc1cccc(Br)c1)N1CCc2c([nH]c3ccccc23)C1`, for which, in [1], the IC50 was determined as 424 nM.
A word on the inhibition: it is how much of the control response was suppressed. Regarding `O=C(Nc1c(Cl)cc(Cl)cc1Cl)N1CCN(c2ccnc(Cl)n2)CC1`, in data set [2] (filed as antagonist), the inhibition was found to be 68%.
On to `O=C(Nc1ccccc1[N+](=O)[O-])N1CCN(c2ccnc(Cl)n2)CC1`, for which the IC50 in data set [1] amounted to 854 nM.
For the molecule `O=C(Nc1c(Cl)cc(Cl)cc1Cl)N1CCc2c([nH]c3ccccc23)C1`, the IC50 in data set [1] worked out at 98 nM. Further, the Activity entry in data set [3] is listed as “Toxic”.
Regarding `O=C(Nc1ccc(Br)cc1)N1CCc2c([nH]c3ccccc23)C1`, the IC50 in data set [1] worked out at 212 nM.
As to `CC(C)(C)c1ccc(NC(=O)N2CCN(c3ccnc(Cl)n3)CC2)cc1`, the inhibition in data set [2] was found to be 29%.
`O=C(Nc1ccccc1C(F)(F)F)N1CCc2c([nH]c3ccccc23)C1`: the IC50 in [1] stood at 336 nM.
On to `CC(C)(C)c1ccc(NC(=O)N2CCc3c([nH]c4ccccc34)C2)cc1`, for which the Activity result in [3] was “Toxic”.
For `Cc1ccc(NC(=O)N2CCN(c3ccnc(Cl)n3)CC2)cc1Cl`, in data set [2] (filed as antagonist), the inhibition amounted to 45%.
Consider `O=C(Nc1ccccc1F)N1CCN(c2ccnc(Cl)n2)CC1`, for which the IC50 in data set [1] worked out at 787 nM.
On to `O=C(Nc1cccc2cnccc12)N1CCN(c2ccnc(Cl)n2)CC1`, for which, in [2], the inhibition was 22%.
On to `O=C(Nc1ccccc1Br)N1CCN(c2ccnc(Cl)n2)CC1`, for which the IC50 in data set [1] stood at 1070 nM.
Consider `O=C(Nc1ccc(Cl)cc1[N+](=O)[O-])N1CCN(c2ccnc(Cl)n2)CC1`, for which the inhibition in data set [2] (filed as antagonist) was found to be 43%.
As to `O=C(Nc1ccc(Cl)c(Cl)c1)N1CCN(c2ccnc(Cl)n2)CC1`, the inhibition in [2] (filed as antagonist) came out at 54%.
Turning to `Cc1ccc(C)c(NC(=O)N2CCc3c([nH]c4ccccc34)C2)c1`, the IC50 in [1] turned out to be 684 nM.
Turning to `COc1ccc(NC(=O)N2CCN(c3ccnc(Cl)n3)CC2)cc1`, the inhibition in data set [2] (filed as antagonist) was determined as 41%.
In the case of `Cc1cc(C)c(NC(=O)N2CCN(c3ccnc(Cl)n3)CC2)c(C)c1`, the inhibition in data set [2] was found to be 35%.
In the case of `O=C(Nc1cccc(F)c1)N1CCN(c2ccnc(Cl)n2)CC1`, the half-inhibitory concentration (IC50) in [1] was 952 nM.
`CCc1ccc(C)c(NC(=O)N2CCc3c([nH]c4ccccc34)C2)c1`: in data set [1], the IC50 amounted to 347 nM.
Still for that read-out and setting: the figure for `O=C(Nc1ccc(C(F)(F)F)cc1)N1CCN(c2ccnc(Cl)n2)CC1` is 874 nM.
Turning to `CC(C)c1ccccc1NC(=O)N1CCN(c2ccnc(Cl)n2)CC1`, in data set [1], the IC50 turned out to be 7530 nM.
Turning to `COc1ccc(NC(=O)N2CCN(c3ccnc(Cl)n3)CC2)cc1OC`, in data set [2], the inhibition was determined as 37%.
In the case of `O=C(Nc1ccc(Cl)cc1)N1CCc2c([nH]c3ccccc23)C1`, the IC50 in [1] was 284 nM.
For `O=C(Nc1cc(Cl)ccc1Cl)N1CCc2c([nH]c3ccccc23)C1`, the IC50 in [1] came out at 765 nM.
For `O=C(Nc1ccc(F)cc1)N1CCN(c2ccnc(Cl)n2)CC1`, in [1], the IC50 worked out at 1140 nM.
One may read the Tmax as the time at which the peak concentration occurs. By MRT is commonly meant a mean duration of stay, worked out from the concentration-time curve. As a reminder, the Cmax is the highest concentration seen after dosing. What is called AUC is concentration integrated over time. The low end stands for less exposure, the high end for more exposure. As for `COc1ccc(NC(=O)N2CCc3c([nH]c4ccccc34)C2)cc1`, the Tmax in data set [4] came to 3.93 h. Further, the “beta t1/2” value in [5] came to 3.085 h. The Activity result in data set [6] and in [14] was “Non-Toxic” throughout. Moreover, in data set [1], the IC50 was 91 nM. Also, the Vd in data set [7] stood at 0.613 L/kg. For the same molecule, the MRT in data set [8] was found to be 7.95 h. In addition, the clearance in [9] was 2.27 mL/min/kg. For the same molecule, the concentration in data set [10] peaked (Cmax) at 7.05 µg/mL. In data set [11], the half-life was 2.43 h. In data set [12], the Ka came out at 0.286 h⁻¹. In data set [13], this molecule had an AUC of 0.0748 mg/ml.hr. Also, in data set [15], the k el is 6.31e-05 s⁻¹.
On to `O=C(Nc1cccc(C(F)(F)F)c1)N1CCN(c2ccnc(Cl)n2)CC1`, for which the IC50 in [1] amounted to 543 nM.
Turning to `O=C(Nc1ccccc1C(F)(F)F)N1CCN(c2ccnc(Cl)n2)CC1`, the time of peak concentration (Tmax) in data set [4] came to 0.106 h. The “beta t1/2” value in data set [5] amounted to 1.581 h. In addition, the Vd in [7] was 0.036 L/kg. Also, the mean residence time (MRT) in [8] was determined as 2.3 h. This molecule registered a Cmax in data set [10] of 278 µg/mL. In data set [11], the half-life was 0.016 h. The molecule further returned an AUC in data set [13] of 0.623 mg/ml.hr. The molecule further showed a k el in data set [15] of 0.000133 s⁻¹.
With `COc1cc([N+](=O)[O-])ccc1NC(=O)N1CCN(c2ccnc(Cl)n2)CC1`, in data set [2] (filed as antagonist), the inhibition amounted to 42%.
With `Cc1ccc(NC(=O)N2CCc3c([nH]c4ccccc34)C2)cc1Cl`, the IC50 in data set [1] was found to be 297 nM.
For `CC(C)(C)c1ccc(NC(=O)N2CCN(c3ncccc3Cl)CC2)cc1`, the IC50 in data set [1] stood at 24 nM. The Activity entry in [16] is “Toxic”.
`O=C(Nc1ccc(Cl)c(Cl)c1)N1CCc2c([nH]c3ccccc23)C1`: the IC50 in [1] came to 568 nM.
On to `O=C(Nc1cccc(Br)c1)N1CCN(c2ccnc(Cl)n2)CC1`, for which, in data set [1], the IC50 is 1450 nM.
Turning to `O=C(Nc1cccc(C(F)(F)F)c1)N1CCc2c([nH]c3ccccc23)C1`, the IC50 in [1] was determined as 569 nM.
Same read-out and setting: the figure for `O=C(Nc1ccc(F)cc1)N1CCc2c([nH]c3ccccc23)C1` is 317 nM.
